# Laboratory results from paper PMC10247784, “Physiological activation of human and mouse bitter taste receptors by bile acids” (Communications Biology, 2023).
# Several values for one entry are separate records, joined by “and”; a condition that tells them apart may be missing. Equal entries are not always repeated.
# Biological target: T1, human TAS2R1 (Homo sapiens, UniProt Q9NYW7)
# T1 construct: expressed in transfected cells; host or cells: HEK293T-Gα16gust44
# T1 sequence (Q9NYW7 1-299): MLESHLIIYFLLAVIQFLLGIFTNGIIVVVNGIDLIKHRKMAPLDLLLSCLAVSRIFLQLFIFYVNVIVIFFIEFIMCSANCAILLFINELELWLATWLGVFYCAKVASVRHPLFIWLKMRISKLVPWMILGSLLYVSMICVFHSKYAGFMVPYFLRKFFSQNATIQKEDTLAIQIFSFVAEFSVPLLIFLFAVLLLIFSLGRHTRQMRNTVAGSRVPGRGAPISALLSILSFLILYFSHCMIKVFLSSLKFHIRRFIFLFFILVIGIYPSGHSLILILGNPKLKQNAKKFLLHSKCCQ
# Test: Calcium imaging assay (FLIPR), HEK293T-Gα16gust44 cells transfected with human TAS2R1
# Type: cell-based
# Method in brief: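 Bile acids from DMSO stocks are applied to dye-loaded cells one day after transient receptor transfection, and calcium-dependent fluorescence is recorded. Maximum signal is standardized to basal and normalized to buffer-only wells, with empty-vector signal subtracted.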
smiles,measurement,setting,value
"C[C@H](CCC(=O)O)[C@H]1CC[C@H]2[C@@H]3CC[C@@H]4C[C@H](O)CC[C@]4(C)[C@H]3CC[C@]12C [Lithocholic Acid, lithocholic acid]",Efficacy = maximal amplitude (ΔF/F),"TAS2R1, bile acids, mean",0.1221
same,"Efficacy (maximal amplitude ΔF/F), individual data points","TAS2R1, bile acids, single replicates, listed as LCA",0.1505 and 0.1173 and 0.0984
same,RLU,Time 0 s,0 RLU
same,RLU,Time 2.015 s,-14.5951 RLU
same,RLU,Time 4.015 s,-7.128 RLU
same,RLU,Time 6.015 s,1.224 RLU
same,RLU,Time 8.015 s,0.3531 RLU
same,RLU,Time 12.015 s,-16.4638 RLU
same,RLU,Time 14.015 s,-4.132 RLU
same,RLU,Time 16.015 s,-20.8125 RLU
same,RLU,Time 18.015 s,1.1121 RLU
same,RLU,Time 18.796 s,25.7864 RLU
same,RLU,Time 20.796 s,69.0707 RLU
same,RLU,Time 22.796 s,111.584 RLU
same,RLU,Time 24.796 s,140.624 RLU
same,RLU,Time 26.796 s,217.83 RLU
same,RLU,Time 28.796 s,298.948 RLU
same,RLU,Time 30.796 s,381.71 RLU
same,RLU,Time 32.796 s,449.564 RLU
same,RLU,Time 34.796 s,475.411 RLU
same,RLU,Time 36.796 s,563.041 RLU
same,RLU,Time 38.796 s,583.488 RLU
same,RLU,Time 40.796 s,612.54 RLU
same,RLU,Time 42.796 s,644.654 RLU
same,RLU,Time 44.796 s,679.197 RLU
same,RLU,Time 46.796 s,695.288 RLU
same,RLU,Time 48.796 s,701.461 RLU
same,RLU,Time 50.796 s,756.471 RLU
same,RLU,Time 52.796 s,734.503 RLU
same,RLU,Time 54.796 s,776.344 RLU
same,RLU,Time 56.796 s,818.875 RLU
same,RLU,Time 58.796 s,815.634 RLU
same,RLU,Time 60.796 s,814.863 RLU
same,RLU,Time 62.796 s,815.671 RLU
same,RLU,Time 64.796 s,814.539 RLU
same,RLU,Time 66.796 s,840.236 RLU
same,RLU,Time 68.796 s,839.926 RLU
same,RLU,Time 70.796 s,857.451 RLU
same,RLU,Time 72.796 s,860.887 RLU
same,RLU,Time 74.796 s,876.325 RLU
same,RLU,Time 76.796 s,873.737 RLU
same,RLU,Time 78.796 s,889.618 RLU
same,RLU,Time 80.796 s,892.644 RLU
same,RLU,Time 82.796 s,897.83 RLU
same,RLU,Time 84.796 s,886.895 RLU
same,RLU,Time 86.796 s,870.09 RLU
same,RLU,Time 88.796 s,907.185 RLU
same,RLU,Time 90.796 s,877.458 RLU
same,RLU,Time 92.796 s,891.158 RLU
same,RLU,Time 94.796 s,920.191 RLU
same,RLU,Time 96.796 s,905.406 RLU
same,RLU,Time 98.796 s,898.952 RLU
same,RLU,Time 100.796 s,892.147 RLU
same,RLU,Time 102.796 s,894.991 RLU
same,RLU,Time 104.796 s,894.373 RLU
same,RLU,Time 106.796 s,867.268 RLU
same,RLU,Time 108.796 s,872.524 RLU
same,RLU,Time 110.796 s,857.451 RLU
same,RLU,Time 112.796 s,864.824 RLU
same,RLU,Time 114.796 s,846.501 RLU
same,RLU,Time 116.796 s,868.556 RLU
same,RLU,Time 118.796 s,842.814 RLU
same,RLU,Time 120.796 s,851.852 RLU
same,RLU,Time 122.796 s,861.523 RLU
same,RLU,Time 124.796 s,851.498 RLU
same,RLU,Time 126.796 s,820.705 RLU
same,RLU,Time 128.796 s,833.006 RLU
same,RLU,Time 130.796 s,811.797 RLU
same,RLU,Time 132.796 s,786.781 RLU
same,RLU,Time 134.796 s,809.512 RLU
same,RLU,Time 136.796 s,797.52 RLU
same,RLU,Time 137.562 s,816.516 RLU
same,RLU,Time 143.562 s,785.521 RLU
same,RLU,Time 149.562 s,770.713 RLU
same,RLU,Time 155.562 s,645 RLU
same,RLU,Time 161.562 s,650.189 RLU
same,RLU,Time 167.562 s,602.288 RLU
same,RLU,Time 173.562 s,588.477 RLU
same,RLU,Time 179.562 s,570.66 RLU
same,RLU,Time 185.562 s,562.77 RLU
same,RLU,Time 191.562 s,515.911 RLU
same,RLU,Time 197.562 s,487.382 RLU
same,RLU,Time 203.562 s,468.151 RLU
same,RLU,Time 209.562 s,433.685 RLU
same,RLU,Time 215.562 s,406.858 RLU
same,RLU,Time 221.562 s,386.034 RLU
same,RLU,Time 227.562 s,427.313 RLU
same,RLU,Time 233.562 s,409.48 RLU
same,RLU,Time 239.562 s,419.888 RLU
same,RLU,Time 245.562 s,384.802 RLU
same,RLU,Time 293.562 s,250.547 RLU
same,RLU,Time 299.562 s,240.784 RLU
same,RLU,"calcium trace, sheet TAS2R1, Time 305.562 s",255.305 RLU
same,RLU,"calcium trace, sheet TAS2R1, Time 311.562 s",251.175 RLU
same,RLU,"calcium trace, sheet TAS2R1, Time 317.562 s",242.237 RLU
same,RLU,"calcium trace, sheet TAS2R1, Time 323.562 s",237.346 RLU
same,RLU,"calcium trace, sheet TAS2R1, Time 329.562 s",210.072 RLU
same,RLU,"calcium trace, sheet TAS2R1, Time 335.562 s",207.541 RLU
same,RLU,"calcium trace, sheet TAS2R1, Time 341.562 s",224.802 RLU
same,RLU,"calcium trace, sheet TAS2R1, Time 347.562 s",199.834 RLU
same,RLU,"calcium trace, sheet TAS2R1, Time 353.562 s",189.761 RLU
same,RLU,"calcium trace, sheet TAS2R1, Time 359.562 s",182.753 RLU
same,Activation threshold concentration TAS2R1,lowest concentration with significantly increased fluorescence vs empty vector (p < 0.01),0.3 µM and 0.30 µM
